Each structure is given as a SMILES string. Where a SMILES comes first, the peptide text is derived from it. Bridges are numbered along the chain shown (N, C = ends). [ ]: non-standard residue; d: D form. Hyp = O=C(O)[C@@H]1C[C@@H](O)CN1; Cit = NC(=O)NCCC[C@H](N)C(=O)O; Pen = CC(C)(S)[C@H](N)C(=O)O; dDab = NCC[C@@H](N)C(=O)O; Dab = NCC[C@H](N)C(=O)O Bounds are passed on as bounds.

Format in all cases: cell-based
Data set [1] concerns Escherichia coli ATCC 25922. Conditions: ATCC 25922. Summed up:
(§1)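 The MIC is the lowest peptide concentration, in μg/mL, with no visible growth after 18-20 h incubation at 35 °C. Serial two-fold peptide dilutions in water with 0.002% P-80 final were added to bacteria in cation-adjusted MHII broth, about 5×10^5 CFU/mL, following modified CLSI microdilution.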

Data set [2] concerns Escherichia coli MCR-1 Af 45. Conditions: MCR-1 Af 45. Summed up: as §1
Data set [3] has as its system Klebsiella pneumoniae SSI3010. Conditions: SSI3010. Summed up: as §1
For data set [4], the system named is human red blood cells (hRBC). Conditions: red cells of human, 1 h, 200 μg/mL. The method in brief:
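Peptides at 200 μg/mL incubated 1 h at 37 °C with 20% (v/v) washed human RBC, shaking. Hemolysis from supernatant OD540, expressed as percent of 2.5% Triton X-100 lysis, with PBS as 0%.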

For `CC[C@H](C)[C@H](NC(=O)[C@@H]1C[C@@H](O)CN1C(=O)[C@@H](N)C(C)C)C(=O)N[C@@H]1C(=O)N[C@@H](Cc2ccc(O)cc2)C(=O)N[C@@H](CO)C(=O)N[C@@H](CC(N)=O)C(=O)N[C@@H](CCCNC(=N)N)C(=O)N[C@@H](CCN)C(=O)N[C@@H]([C@@H](C)O)C(=O)N[C@H](CCN)C(=O)N[C@@H](CCCCN)C(=O)N[C@@H](C)C(=O)N[C@@H](CCN)C(=O)N[C@H](C(=O)N[C@@H](Cc2ccc(O)cc2)C(=O)O)CSSC1(C)C` [Example 46, Val-Hyp-Ile-Pen-Tyr-Ser-Asn-Arg-Dab-Thr-^DDab-Lys-Ala-Dab-Cys-Tyr] (H-V[Hyp]I[Pen]YSNR[Dab]T[dDab]KA[Dab]CY-OH; disulfide 4-15), the “Escherichia coli ATCC 25922 MIC” value in data set [1] was 0.5 µg/mL. Also, the “Escherichia coli MCR-1 Af45 MIC” value in data set [2] was 0.25 µg/mL. The “Klebsiella pneumoniae SSI3010 MIC” value in data set [3] worked out at 0.5 µg/mL. The “Hemolysis at 0.2 g/L” value in data set [4] is listed as below 1%.

Turning to `CC[C@H](C)[C@H](NC(=O)[C@@H]1C[C@@H](O)CN1C(=O)[C@@H](N)C(C)C)C(=O)N[C@@H]1C(=O)N[C@@H](Cc2ccc(O)cc2)C(=O)N[C@@H](CO)C(=O)N[C@@H](CC(N)=O)C(=O)N[C@@H](CCCNC(=N)N)C(=O)N[C@@H](CCN)C(=O)N[C@@H]([C@@H](C)O)C(=O)N[C@H](CCN)C(=O)N[C@@H](CCCCN)C(=O)N[C@@H](CO)C(=O)N[C@@H](CCN)C(=O)N[C@H](C(=O)N[C@@H](Cc2ccc(O)cc2)C(=O)O)CSSC1(C)C` [Example 47, Val-Hyp-Ile-Pen-Tyr-Ser-Asn-Arg-Dab-Thr-^DDab-Lys-Ser-Dab-Cys-Tyr] (H-V[Hyp]I[Pen]YSNR[Dab]T[dDab]KS[Dab]CY-OH; disulfide 4-15), the “Escherichia coli ATCC 25922 MIC” value in data set [1] came to 0.25 µg/mL. Besides, the “Escherichia coli MCR-1 Af45 MIC” value in data set [2] amounted to 0.25 µg/mL. For the same compound, the “Klebsiella pneumoniae SSI3010 MIC” value in data set [3] was determined as 0.5 µg/mL. In addition, the “Hemolysis at 0.2 g/L” value in data set [4] is reported as below 1%.

As to `CC[C@H](C)[C@H](NC(=O)[C@@H]1C[C@@H](O)CN1C(=O)[C@@H](N)C(C)C)C(=O)N[C@@H]1C(=O)N[C@@H](Cc2ccc(O)cc2)C(=O)N[C@@H](CCN)C(=O)N[C@@H](CC(N)=O)C(=O)N[C@@H](CCCNC(=N)N)C(=O)N[C@@H](CCN)C(=O)N[C@@H]([C@@H](C)O)C(=O)N[C@H](CCN)C(=O)N[C@@H](CCCCN)C(=O)N[C@@H](CO)C(=O)N[C@@H](CO)C(=O)N[C@H](C(=O)N[C@@H](Cc2ccc(O)cc2)C(=O)O)CSSC1(C)C` [Example 48, Val-Hyp-Ile-Pen-Tyr-Dab-Asn-Arg-Dab-Thr-^DDab-Lys-Ser-Ser-Cys-Tyr] (H-V[Hyp]I[Pen]Y[Dab]NR[Dab]T[dDab]KSSCY-OH; disulfide 4-15), the “Escherichia coli ATCC 25922 MIC” value in data set [1] worked out at 0.25 µg/mL. Moreover, the “Escherichia coli MCR-1 Af45 MIC” value in data set [2] was determined as 0.25 µg/mL. The “Klebsiella pneumoniae SSI3010 MIC” value in data set [3] was 0.5 µg/mL. Moreover, in data set [4], the “Hemolysis at 0.2 g/L” value is given as below 1%.

On to `CC[C@H](C)[C@H](NC(=O)[C@@H]1C[C@@H](O)CN1C(=O)[C@@H](N)C(C)C)C(=O)N[C@@H]1C(=O)N[C@@H](Cc2ccc(O)cc2)C(=O)N[C@@H](CCN)C(=O)N[C@@H](CC(N)=O)C(=O)N[C@@H](CCCNC(=N)N)C(=O)N[C@@H](CCN)C(=O)N[C@@H]([C@@H](C)O)C(=O)N[C@H](CCN)C(=O)N[C@@H](CCCCN)C(=O)N[C@@H]([C@@H](C)O)C(=O)N[C@@H](CCCNC(N)=O)C(=O)N[C@H](C(=O)N[C@@H](Cc2ccc(O)cc2)C(=O)O)CSSC1(C)C` [Example 49, Val-Hyp-Ile-Pen-Tyr-Dab-Asn-Arg-Dab-Thr-^DDab-Lys-Thr-Cit-Cys-Tyr] (H-V[Hyp]I[Pen]Y[Dab]NR[Dab]T[dDab]KT[Cit]CY-OH; disulfide 4-15), for which the “Escherichia coli ATCC 25922 MIC” value in data set [1] was 0.25 µg/mL. Besides, the “Escherichia coli MCR-1 Af45 MIC” value in data set [2] came to 0.25 µg/mL. In data set [3], the “Klebsiella pneumoniae SSI3010 MIC” value is 0.5 µg/mL. Also, the “Hemolysis at 0.2 g/L” value in data set [4] is below 1%.

The values above are taken from US20240336654A1, “ANTIMICROBIAL PEPTIDOMIMETICS” (SPEXIS AG, priority 2021, published 2024).
